28 molecules from patent US9573957B2 (Boehringer Ingelheim International GmbH, priority 2013, dated 2017) can be followed below.

pIC50: −log10 of the molar value.

Test [1] concerns synthesis of LTB4 in human whole blood. The test can be described thus: LTB4 production inhibition assay in human whole blood (HWB). Type of test: cell-based. Conditions: heparinized human whole blood, 15 min at 37° C., Calcimycin 20 μM 30 min, plasma LTB4 by HTRF. The gist of the method: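 Heparinized human whole blood preincubated with compound 15 min at 37° C, then stimulated with calcimycin (20 μM final) for 30 min at 37° C. Plasma separated by centrifugation; LTB4 measured by antibody-based homogeneous time-resolved fluorescence.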
Background: Time-resolved FRET reads energy transfer from a long-lived donor to a nearby acceptor.

Another test concerns the target human LTA4 hydrolase (Homo sapiens (Human), UniProt P09960). The test can be described thus: LTA4H Enzyme assay (peptidase, Arg-AMC cleavage). It counts as biochemical. Particulars: LTA4H Enzyme 1 nM, Arg-AMC substrate 50 μM, room temperature 1 h, fluorescence. The method, boiled down:
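Peptidase activity of human LTA4H (1 nM final) on Arg-AMC (50 μM final), with compound, 1 h at room temperature. Buffer: 50 mM Tris-HCl pH 7.5, 100 mM KCl, 0.5% BSA.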

human LTA4 hydrolase, sequence (P09960 whole entry): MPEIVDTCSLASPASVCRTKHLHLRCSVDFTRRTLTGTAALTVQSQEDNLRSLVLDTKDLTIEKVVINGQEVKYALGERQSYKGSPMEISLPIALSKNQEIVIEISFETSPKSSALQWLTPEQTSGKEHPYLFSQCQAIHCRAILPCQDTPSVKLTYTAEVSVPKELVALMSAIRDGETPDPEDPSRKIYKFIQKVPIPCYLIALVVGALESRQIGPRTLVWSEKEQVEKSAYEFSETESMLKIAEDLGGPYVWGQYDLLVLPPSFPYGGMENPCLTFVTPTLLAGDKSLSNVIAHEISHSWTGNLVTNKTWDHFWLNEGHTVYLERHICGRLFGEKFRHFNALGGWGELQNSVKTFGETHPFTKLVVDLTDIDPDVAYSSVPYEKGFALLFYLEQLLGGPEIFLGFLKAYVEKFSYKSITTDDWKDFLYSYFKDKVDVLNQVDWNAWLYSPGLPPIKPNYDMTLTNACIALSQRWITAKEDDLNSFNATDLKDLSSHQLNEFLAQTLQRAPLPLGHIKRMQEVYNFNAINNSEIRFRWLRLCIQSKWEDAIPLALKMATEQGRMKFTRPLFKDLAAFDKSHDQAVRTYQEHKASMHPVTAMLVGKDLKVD

By pIC50 is commonly meant the IC50 on a negative log10 scale, so that one unit is a factor of ten. Consider `CN(Cc1ccc2cc(Oc3ccc(-c4ccn[nH]4)cn3)ccc2n1)[C@H]1CCN(C(=O)CO)C1` [Example 101, 2-Hydroxy-1-[(S)-3-(methyl-{6-[5-(2H-pyrazol-3-yl)-pyridin-2-yloxy]-quinolin-2-ylmethyl}-amino)-pyrrolidin-1-yl]-ethanone], for which the pIC50 in test [1] is 6.64; on human LTA4 hydrolase, 8.70.

For the molecule `CO[C@@H](C)C(=O)N1CCN(Cc2ccc3cc(Oc4ccc(-c5ccn[nH]5)cn4)ccc3n2)CC1` [Example 118, (S)-2-Methoxy-1-(4-{6-[5-(2H-pyrazol-3-yl)-pyridin-2-yloxy]-quinolin-2-ylmethyl}-piperazin-1-yl)-propan-1-one], the pIC50 in test [1] is 6.77; against human LTA4 hydrolase it was 9.17.

For `CS(=O)(=O)N1CCN(Cc2ccc3cc(Oc4ccc(-c5ccn[nH]5)cn4)ccc3n2)CC1` [Example 66, 2-(4-Methanesulfonyl-piperazin-1-ylmethyl)-6-[5-(2H-pyrazol-3-yl)-pyridin-2-yloxy]-quinoline], the results for the negative-log IC50 (pIC50) (in test [1]; at human LTA4 hydrolase) were 6.37 and 8.77, respectively.

With `OCC1CN(Cc2ccc3cc(Oc4ccc(-c5ccn[nH]5)cn4)ccc3c2)C1` [Example 4, (1-{6-[5-(2H-Pyrazol-3-yl)-pyridin-2-yloxy]-naphthalen-2-ylmethyl}-azetidin-3-yl)-methanol], the results for the pIC50 (in test [1]; against human LTA4 hydrolase) were 6.80 and 9.32, respectively.

Turning to `O=C1CCCN1C1CCN(CCc2coc3cc(Oc4ccc(-c5ccn[nH]5)cn4)ccc23)CC1` [Example 72, 1-[1-(2-{6-[5-(2H-Pyrazol-3-yl)-pyridin-2-yloxy]-benzofuran-3-yl}-ethyl)-piperidin-4-yl]-pyrrolidin-2-one], the pIC50 in test [1] is 6.80; against human LTA4 hydrolase it was 9.33.

Consider `CO[C@H](C)C(=O)N1CC2CCC(C1)N2Cc1ccc2cc(Oc3ccc(-c4ccn[nH]4)cn3)ccc2n1` [Example 52, (R)-2-Methoxy-1-(8-{6-[5-(2H-pyrazol-3-yl)-pyridin-2-yloxy]-quinolin-2-ylmethyl}-3,8-diaza-bicyclo[3.2.1]oct-3-yl)-propan-1-one], for which the pIC50 is 6.82 in test [1] and 9.11 against human LTA4 hydrolase.

Regarding `O=C1CCCN1C1CCN(C[C@@H]2Cc3ccc(Oc4ccc(-c5ccn[nH]5)cn4)cc3O2)CC1` [Example 64, 1-(1-{(S)-6-[5-(2H-Pyrazol-3-yl)-pyridin-2-yloxy]-2,3-dihydro-benzofuran-2-ylmethyl}-piperidin-4-yl)-pyrrolidin-2-one], the pIC50 is 6.82 in test [1] and 9.02 against human LTA4 hydrolase.

With `CN(Cc1ccc2cc(Oc3ccc(-c4ccn[nH]4)cn3)ccc2n1)[C@@H]1CCN(C(=O)CO)C1` [Example 100, 2-Hydroxy-1-[(R)-3-(methyl-{6-[5-(2H-pyrazol-3-yl)-pyridin-2-yloxy]-quinolin-2-ylmethyl}-amino)-pyrrolidin-1-yl]-ethanone], the pIC50 in test [1] is 6.77; on human LTA4 hydrolase it was 9.04.

Consider `O[C@H]1CCN(Cc2ccc3cc(Oc4ccc(-c5ccn[nH]5)cn4)ccc3c2)C1` [Example 5, (S)-1-{6-[5-(2H-Pyrazol-3-yl)-pyridin-2-yloxy]-naphthalen-2-ylmethyl}-pyrrolidin-3-ol], for which the values for the pIC50 (in test [1]; on human LTA4 hydrolase) were 6.89 and 9.22, respectively.

Take `OC[C@@H]1CCN(Cc2ccc3cc(Oc4ccc(-c5ccn[nH]5)cn4)ccc3c2)C1` [Example 22, ((R)-1-{6-[5-(2H-Pyrazol-3-yl)-pyridin-2-yloxy]-naphthalen-2-ylmethyl}-pyrrolidin-3-yl)-methanol]: the pIC50 in test [1] is 6.89; at human LTA4 hydrolase, 9.19.

In the case of `O=C([C@@H]1CCOC1)N1CCN(Cc2ccc3cc(Oc4ccc(-c5ccn[nH]5)cn4)ccc3n2)CC1` [Example 141, (4-{6-[5-(2H-Pyrazol-3-yl)-pyridin-2-yloxy]-quinolin-2-ylmethyl}-piperazin-1-yl)-(R)-tetrahydro-furan-3-yl-methanone], the pIC50 in test [1] is 6.40; against human LTA4 hydrolase, 8.57.

As to `CC(C)OCC(=O)N1CCN(Cc2ccc3cc(Oc4ccc(-c5ccn[nH]5)cn4)ccc3n2)CC1` [Example 130, 2-Isopropoxy-1-(4-{6-[5-(2H-pyrazol-3-yl)-pyridin-2-yloxy]-quinolin-2-ylmethyl}-piperazin-1-yl)-ethanone], the figures for the pIC50 (in test [1]; on human LTA4 hydrolase) were 6.20 and 8.60, respectively.

As to `CC(=O)NC1CCN(Cc2coc3cc(Oc4ccc(-c5ccn[nH]5)cn4)ccc23)CC1` [Example 104, N-(1-{6-[5-(2H-Pyrazol-3-yl)-pyridin-2-yloxy]-benzofuran-3-ylmethyl}-piperidin-4-yl)-acetamide], the figures for the pIC50 (in test [1]; against human LTA4 hydrolase) were 6.82 and 9.25, respectively.

Take `CC1(O)CN(Cc2ccc3cc(Oc4ccc(-c5ccn[nH]5)cn4)ccc3c2)C1` [Example 11, 3-Methyl-1-{6-[5-(2H-pyrazol-3-yl)-pyridin-2-yloxy]-naphthalen-2-ylmethyl}-azetidin-3-ol]: the pIC50 in test [1] is 6.96; against human LTA4 hydrolase, 9.28.

Turning to `C[C@H](O)C(=O)N1CCN(Cc2cn3cc(Oc4ccc(-c5ccn[nH]5)cc4)ccc3n2)CC1` [Example 87, (S)-2-Hydroxy-1-(4-{6-[4-(2H-pyrazol-3-yl)-phenoxy]-imidazo[1,2-a]pyridin-2-ylmethyl}-piperazin-1-yl)-propan-1-one], the negative logarithm of the IC50 (pIC50) is 6.59 in test [1] and 9.00 on human LTA4 hydrolase.

In the case of `OC1CC2(C1)CN(Cc1ccc3cc(Oc4ccc(-c5ccn[nH]5)cn4)ccc3c1)C2` [Example 10, 2-{6-[5-(2H-Pyrazol-3-yl)-pyridin-2-yloxy]-naphthalen-2-ylmethyl}-2-aza-spiro[3.3]heptan-6-ol], the results for the pIC50 (in test [1]; against human LTA4 hydrolase) were 6.82 and 9.32, respectively.

On to `CC(=O)N1CCN(Cc2ccc3cc(Oc4ncc(-c5ccn[nH]5)cn4)ccc3c2)CC1` [Example 25, 1-(4-{6-[5-(2H-Pyrazol-3-yl)-pyrimidin-2-yloxy]-naphthalen-2-ylmethyl}-piperazin-1-yl)-ethanone], for which the results for the pIC50 (in test [1]; against human LTA4 hydrolase) were 6.28 and 8.77, respectively.

In the case of `CC(C)(O)CC(=O)N1CCN(Cc2ccc3cc(Oc4ccc(-c5ccn[nH]5)cn4)ccc3n2)CC1` [Example 122, 3-Hydroxy-3-methyl-1-(4-{6-[5-(2H-pyrazol-3-yl)-pyridin-2-yloxy]-quinolin-2-ylmethyl}-piperazin-1-yl)-butan-1-one], the values for the pIC50 (in test [1]; on human LTA4 hydrolase) were 6.24 and 8.41, respectively.

Regarding `N#CC1(C(=O)N2CCN(Cc3ccc4cc(Oc5ccc(-c6ccn[nH]6)cn5)ccc4n3)CC2)CC1` [Example 116, 1-(4-{6-[5-(2H-Pyrazol-3-yl)-pyridin-2-yloxy]-quinolin-2-ylmethyl}-piperazine-1-carbonyl)-cyclopropanecarbonitrile], the pIC50 in test [1] was 6.62; against human LTA4 hydrolase, 9.06.

As to `O=C1[C@@H](O)CCN1C1CCN(Cc2coc3cc(Oc4ccc(-c5ccn[nH]5)cn4)ccc23)CC1` [Example 109, (S)-3-Hydroxy-1-(1-{6-[5-(2H-pyrazol-3-yl)-pyridin-2-yloxy]-benzofuran-3-ylmethyl}-piperidin-4-yl)-pyrrolidin-2-one], the pIC50 in test [1] is 6.85; against human LTA4 hydrolase, 9.44.

Regarding `CCS(=O)(=O)N1CCN(Cc2ccc3cc(Oc4ccc(-c5ccn[nH]5)cn4)ccc3n2)CC1` [Example 67, 2-(4-Ethanesulfonyl-piperazin-1-ylmethyl)-6-[5-(2H-pyrazol-3-yl)-pyridin-2-yloxy]-quinoline], the pIC50 is 6.26 in test [1] and 8.54 against human LTA4 hydrolase.

Take `NC(=O)C1CCN(Cc2ccc3cc(Oc4ncc(-c5ccn[nH]5)cn4)ccc3c2)CC1` [Example 27, 1-{6-[5-(2H-Pyrazol-3-yl)-pyrimidin-2-yloxy]-naphthalen-2-ylmethyl}-piperidine-4-carboxylic acid amide]: the pIC50 is 6.70 in test [1] and 8.85 on human LTA4 hydrolase.

`CS(=O)(=O)N1CCN(CCc2coc3cc(Oc4ccc(-c5ccn[nH]5)cn4)ccc23)CC1` [Example 74, 1-Methanesulfonyl-4-(2-{6-[5-(2H-pyrazol-3-yl)-pyridin-2-yloxy]-benzofuran-3-yl}-ethyl)-piperazine]: the negative logarithm of the IC50 (pIC50) was 6.46 in test [1] and 8.85 against human LTA4 hydrolase.

`COCC(=O)N1CC2CCC(C1)N2Cc1ccc2cc(Oc3ccc(-c4ccn[nH]4)cn3)ccc2n1` [Example 60, 2-Methoxy-1-(8-{6-[5-(2H-pyrazol-3-yl)-pyridin-2-yloxy]-quinolin-2-ylmethyl}-3,8-diaza-bicyclo[3.2.1]oct-3-yl)-ethanone]: the figures for the pIC50 (in test [1]; against human LTA4 hydrolase) were 6.96 and 9.48, respectively.

Consider `CC[C@H](O)C(=O)N1CCN(Cc2ccc3cc(Oc4ccc(-c5ccn[nH]5)cn4)ccc3n2)CC1` [Example 127, (S)-2-Hydroxy-1-(4-{6-[5-(2H-pyrazol-3-yl)-pyridin-2-yloxy]-quinolin-2-ylmethyl}-piperazin-1-yl)-butan-1-one], for which the pIC50 is 6.49 in test [1] and 8.64 on human LTA4 hydrolase.

Consider `CN(C(=O)CO)[C@H]1CCN(Cc2coc3cc(Oc4ccc(-c5ccn[nH]5)cn4)ccc23)C1` [Example 114, 2-Hydroxy-N-methyl-N-((S)-1-{6-[5-(2H-pyrazol-3-yl)-pyridin-2-yloxy]-benzofuran-3-ylmethyl}-pyrrolidin-3-yl)-acetamide], for which the negative-log IC50 (pIC50) was 6.82 in test [1] and 9.25 against human LTA4 hydrolase.

On to `N#CC1(C(=O)N2CCN(Cc3ccc4cc(Oc5ccc(-c6ccn[nH]6)cn5)ccc4n3)CC2)CCC1` [Example 146, 1-(4-{6-[5-(2H-Pyrazol-3-yl)-pyridin-2-yloxy]-quinolin-2-ylmethyl}-piperazine-1-carbonyl)-cyclobutanecarbonitrile], for which the negative-log IC50 (pIC50) in test [1] is 6.12; against human LTA4 hydrolase, 8.47.

As for `O=C1[C@@H](O)CCN1C1CCN(Cc2ccc3cc(Oc4ncc(-c5ccn[nH]5)cn4)ccc3c2)CC1` [Example 29, (S)-3-Hydroxy-1-(1-{6-[5-(2H-pyrazol-3-yl)-pyrimidin-2-yloxy]-naphthalen-2-ylmethyl}-piperidin-4-yl)-pyrrolidin-2-one], the values for the pIC50 (in test [1]; on human LTA4 hydrolase) were 6.66 and 8.74, respectively.
